In this test the target is T1, human autotaxin (Homo sapiens, UniProt Q13822).
T1 construct: Conditioned media is collected from confluent Hep3B cells and concentrated 20-fold; endogenous in cells; host or cells: Hep3B human hepatocellular carcinoma cells (concentrated conditioned medium)
The experiment in a line: Human Autotaxin Assay (choline release from LPC). It is filed as biochemical. The note with it: ATX in concentrated conditioned media from Hep3B cells, substrate LPC 14:0 100 uM, absorbance at 555 nm. The procedure: ATX activity is assayed in concentrated conditioned media from Hep3B human hepatocellular carcinoma cells by measuring the amount of choline released from the substrate, lysophosphatidylcholine (LPC) as it is cleaved to LPA. Conditioned media is collected from confluent Hep3B cells and concentrated 20-fold using Centriprep-30 filter devices (Millipore). To assay for autotaxin inhibition, 10-20 μL of the concentrated conditioned media is incubated with 2.5 μL of a test compound in DMSO and 72.5-82.5 μL lyso-PLD buffer (100 mM Tris pH 9, 500 mM NaCl, 5 mM MgCl2, 5 mM CaCl2, 0.05% Triton X-100 in the presence or absence of 0.2% fatty-acid-free human serum albumin) for 15 min at 37° C. After the 15 min incubation, 5 ul of 2 mM LPC (14:0; Avanti Polar Lipids Cat#855575C) diluted in lyso-PLD buffer is added for a final concentration of 100 uM and the incubation continues for 1.5-3 hours at 37° C. 100 μl of a color mix containing 4.5 mM 4-aminoantipyrine, 2.7 mM N-ethyl-N-(2-hydroxy-3-sulfopropyl)-m-toluidine, 21 units/ml horseradish peroxidase and 3 units/ml choline oxidase in 50 mM Tris, pH 8, 4.5 mM MgCl2 is added and the incubation continued for 15 minutes at room temperature before reading the absorbance at 555 nm.
Consider `N#C/C(=C\c1cn(Cc2ccc(F)cc2)c2c(F)c(Cl)ccc12)c1ccc(C(=O)O)cc1` [Compound 1-49, (Z)-4-(2-(6-chloro-7-fluoro-1-(4-fluorobenzyl)-1H-indol-3-yl)-1-cyanovinyl)benzoic Acid], for which the IC50 – broadly, the concentration needed to halve the response being measured – was 500 to 10000 nM. Turning to `COc1ccc(Cn2cc(/C=C(\C#N)c3ccc(C(=O)O)cc3)c3ccc(Cl)c(F)c32)cn1` [Compound 1-50], the IC50 was at most 500 nM.

`N#C/C(=C\c1cn(Cc2cnc(C(F)(F)F)s2)c2c(F)c(Cl)ccc12)c1ccc(C(=O)O)cc1` [Compound 1-52] had an IC50 of at most 500 nM. The value for `CCOc1ccc2c(/C=C(\C#N)c3ccc(C(=O)O)cc3)cn(Cc3ccc(F)cc3)c2c1` [Compound 1-65, (Z)-4-(1-cyano-2-(6-ethoxy-1-(4-fluorobenzyl)-1H-indol-3-yl)vinyl)benzoic Acid] was at most 500 nM; that for `N#C/C(=C\c1cn(Cc2ccc(F)cc2)c2cc([N+](=O)[O-])ccc12)c1ccc(C(=O)O)cc1` [Compound 1-66, (Z)-4-(1-cyano-2-(1-(4-fluorobenzyl)-6-nitro-1H-indol-3-yl)vinyl)benzoic Acid] was at most 500 nM; that for `CS(=O)(=O)c1ccc2c(/C=C(\C#N)c3ccc(C(=O)O)cc3)cn(Cc3ccc(F)cc3)c2c1` [Compound 1-67, (Z)-4-(1-cyano-2-(1-(4-fluorobenzyl)-6-(methylsulfonyl)-1H-indol-3-yl)vinyl)benzoic Acid] was 500 to 10000 nM.

Compound `N#C/C(=C\c1cn(Cc2ccc(F)cc2)c2cc(OC(F)(F)F)ccc12)c1ccc(C(=O)O)cc1` [Compound 1-75, (Z)-4-(1-cyano-2-(1-(4-fluorobenzyl)-6-trifluoromethoxy-1H-indol-3-yl)vinyl)benzoic Acid] yielded an IC50 of at most 500 nM. The value for `COc1ccc(Cn2cc(/C=C(\C#N)c3ccc(C(=O)O)cc3)c3ccc(OC(F)(F)F)cc32)cn1` [Compound 1-76] was at most 500 nM; that for `N#C/C(=C\c1cn(Cc2cnc(C(F)(F)F)s2)c2cc(OC(F)(F)F)ccc12)c1ccc(C(=O)O)cc1` [Compound 1-77, (Z)-4-(1-cyano-2-(6-(trifluoromethoxy)-1-((2-(trifluoromethyl)thiazol-5-yl)methyl)-1H-indol-3-yl)vinyl)benzoic Acid] was at most 500 nM; that for `N#C/C(=C\c1cn(Cc2ccc(F)cc2)c2cc(Cl)ccc12)c1ccc(C(=O)O)nc1` [Compound 2-2, 5-[(Z)-2-[6-chloro-1-[(4-fluorophenyl)methyl]indol-3-yl]-1-cyano-vinyl]pyridine-2-carboxylic Acid] was at most 500 nM.

Regarding `COc1ccc(Cn2cc(/C=C(\C#N)c3ccc(C(=O)O)nc3)c3ccc(Cl)cc32)cn1` [Compound 2-3, 5-[(Z)-2-[6-chloro-1-[(6-methoxy-3-pyridyl)methyl]indol-3-yl]-1-cyano-vinyl]pyridine-2-carboxylic Acid], the IC50 is at most 500 nM.

The compound `N#C/C(=C\c1cn(Cc2ccccc2)c2cc(Cl)ccc12)c1cccc(C(=O)O)c1` [Compound 2-4, 3-[(Z)-2-(1-benzyl-6-chloro-indol-3-yl)-1-cyano-vinyl]benzoic Acid] returned an IC50 of 500 to 10000 nM. Regarding `N#C/C(=C\c1cn(Cc2ccc(F)cc2)c2cc(Cl)ccc12)c1ccc(CC(=O)O)cc1` [Compound 2-25, (Z)-2-(4-(2-(6-chloro-1-(4-fluorobenzyl)-1H-indol-3-yl)-1-cyanovinyl)phenyl)acetic Acid], the IC50 was at most 500 nM. Take `N#C/C(=C\c1cn(Cc2ccc(F)cc2)c2cc(Cl)ccc12)c1cccc(C(=O)O)c1` [Compound 2-26]: the IC50 was in the range of 500 to 10000 nM.

These data come from patent US9714240B2 (PharmAkea, Inc., priority 2013, dated 2017).
